Numbering of substitutions follows the chain as printed. Like-named read-outs stand apart in the source and are kept apart here.
What was measured:
AR in VCaP cells = target: T1, AR in VCaP cells (Homo sapiens, UniProt P10275); experiment: Assay on degradation activity for AR in VCaP cells (HTRF human androgen receptor detection kit); type: cell-based; conditions: 24 h incubation
T1 construct: Assay on Degradation Activity for AR in VCaP Cells; endogenous in cells; host or cells: VCaP cells
T1 sequence (P10275 1-920): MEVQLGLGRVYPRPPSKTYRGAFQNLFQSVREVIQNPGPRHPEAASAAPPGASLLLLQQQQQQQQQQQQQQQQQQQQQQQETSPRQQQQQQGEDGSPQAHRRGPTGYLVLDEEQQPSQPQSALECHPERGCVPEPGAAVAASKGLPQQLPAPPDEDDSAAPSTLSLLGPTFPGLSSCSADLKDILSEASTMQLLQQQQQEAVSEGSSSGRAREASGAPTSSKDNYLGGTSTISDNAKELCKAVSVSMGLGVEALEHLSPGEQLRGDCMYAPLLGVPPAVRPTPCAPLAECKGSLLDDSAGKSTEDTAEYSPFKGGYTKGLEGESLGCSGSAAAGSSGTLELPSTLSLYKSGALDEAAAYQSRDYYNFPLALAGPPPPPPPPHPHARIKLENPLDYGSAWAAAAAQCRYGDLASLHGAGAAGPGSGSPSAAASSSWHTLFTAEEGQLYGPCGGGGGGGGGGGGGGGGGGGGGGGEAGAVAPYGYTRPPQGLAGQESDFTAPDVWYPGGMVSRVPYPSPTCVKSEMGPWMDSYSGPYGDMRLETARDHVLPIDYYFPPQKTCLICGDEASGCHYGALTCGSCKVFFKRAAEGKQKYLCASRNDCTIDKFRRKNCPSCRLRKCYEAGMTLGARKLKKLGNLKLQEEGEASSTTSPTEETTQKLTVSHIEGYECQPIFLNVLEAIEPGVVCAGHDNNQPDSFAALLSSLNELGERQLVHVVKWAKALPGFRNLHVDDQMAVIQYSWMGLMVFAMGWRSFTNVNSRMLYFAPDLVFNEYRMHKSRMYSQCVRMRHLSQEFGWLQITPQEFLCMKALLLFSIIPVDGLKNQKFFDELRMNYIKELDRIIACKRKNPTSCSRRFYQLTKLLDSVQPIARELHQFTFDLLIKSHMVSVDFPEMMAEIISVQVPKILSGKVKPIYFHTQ
Protocol: (§1) The detection was carried out using the HTRF HUMAN ANDROGEN RECEPTOR DETECTION KIT (cisbio, 64ANDRPEG), 4× Supplemented Lysis buffer was prepared using the Blocking reagent stock solution (100×) and Lysis buffer stock solution (4×), and 1× Supplemented Lysis buffer was prepared using the 4× Supplemented Lysis buffer and ddH2O. Premixed antibody solutions were prepared using Detection buffer, Androgen Receptor Eu Cryptate antibody, and Androgen Receptor d2 antibody.
(§2) VCaP cells in a good growth state were taken, washed with PBS, digested with pancreatin, and added with 2% CSS—FBS phenol red-free DMEM complete medium to terminate the digestion. The cells were collected by using a centrifuge tube, adjusted to a cell density of 1×10^6 cells/mL, and seeded in a 96-well plate (100 µL/well). The cells were incubated overnight in a cell incubator. Compounds were added using a nanoliter pipettor such that the final concentrations of the compounds were 1000 nM-0.977 nM. Two duplicate wells were set for each concentration, and meanwhile, a control was set. After another 24 h of incubation in the cell incubator, the medium was pipetted out, the 1× Supplemented Lysis buffer was added at 40 μL/well to lyse the cells. After the cells were oscillated for 40 min at room temperature, 16 μL of the cell lysate was added to a 384-well plate, the Premixed antibody solutions were added at 4 μL/well, and the mixture was left to stand at 25° C. for 2 h. Fluorescence values were detected at 665 nm/620 nm using an Envision microplate reader, the four-parameter analysis was performed, the dose-response curves were fit, and DC50 (the concentration of the drug when the degradation rate reaches 50%) and Dmax (the maximum degradation rate) were calculated.

VCaP cells = experiment: Assay on inhibitory activity for VCaP cell proliferation (CCK-8); type: cell-based; conditions: 168 h incubation
Method in brief: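 VCaP cells seeded at 1×10^5 cells/mL in phenol red-free DMEM with 5% charcoal-stripped FBS, treated in duplicate at 10000–0.61 nM final. After 168 h incubation, viability was read with CCK-8.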

LNCaP cells = experiment: Assay on inhibitory activity for LNCaP cell proliferation (CCK-8); type: cell-based; conditions: 168 h incubation
Method in brief: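 Cells seeded at 1×10^5 cells/mL in phenol red-free 1640 with 2% CSS-FBS, treated at final 10000 nM-0.61 nM in duplicate. After 168 h incubation, viability read with CCK-8.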

[1] = In vitro stability in liver microsome; type: in vitro ADME; conditions: human liver microsome 0.5 mg/mL, NADPH, 37° C.
Protocol: Liver microsome incubation samples (species: human, monkey, rat, and mouse) were prepared by mixing a PBS buffer (pH=7.4), a liver microsome solution (0.5 mg/mL), a test compound, and an NADPH+MgCl2 solution and incubated at 37° C. and 300 rpm for 1 h. Zero-hour samples were prepared by mixing a PBS buffer (pH=7.4), a liver microsome solution (0.5 mg/mL), and a test compound. An acetonitrile solution containing an internal standard was added to the samples, and supernatants were prepared by protein precipitation, diluted, and then assayed by LC/MS/MS.

Mouse pharmacokinetics = type: in vivo, ICR mice
Protocol: ICR mice weighing 18-22 g were randomized into groups of 9 after 3-5 days of acclimatization, and then intragastrically given the test compound solution at a dose of 10 mg/kg and intravenously injected with the test compound solution at a dose of 1 mg/kg.
Blood sampling time points for the intragastrical administration group were 15 min, 0.5 h, 1 h, 2 h, 3 h, 4 h, 6 h, 8 h, 10 h, and 24 h, and blood sampling time points for the intravenous injection administration group were […], 15 min, 0.5 h, 1 h, 2 h, 4 h, 6 h, 8 h, 10 h, and 24 h; blood was collected from the orbit to prepare plasma samples to be tested. 30 μL of each of the plasma samples to be tested and a standard curve sample were taken, and an acetonitrile solution containing an internal standard was added. Supernatants were obtained by protein precipitation, diluted, and then assayed by LC/MS/MS. Pharmacokinetic parameters were fitted using a non-compartmental model (see Table 6).

AR in LNCaP cells = target: T2, AR in LNCaP cells (Homo sapiens, UniProt P10275, T878A); experiment: Assay on degradation activity for AR in LNCaP cells (HTRF human androgen receptor detection kit); type: cell-based; conditions: 24 h incubation; for DC50: HTRF; for Dmax: maximum degradation rate
T2 construct: Assay on Degradation Activity for AR in LNCaP Cells; endogenous in cells; host or cells: LNCaP cells
T2 sequence (P10275 1-920 T878A): T1 sequence (P10275 1-920) with T878A
Protocol: as §1
as §2, with “LNCaP” for “VCaP”, “1640” for “DMEM”, “μL/well).” for “µL/well).”, “500 nM-0.488” for “1000 nM-0.977”

[2] = ICR, mouse, plasma, iv, 1 mg/kg, Mouse i.v. 1 mpk
[3] = ICR, mouse, plasma, iv, 1 mg/kg, Mouse i.v. 1 mpk, read-out: AUC
[4] = ICR, mouse, plasma, po, 10 mg/kg, Mouse i.g. 10 mpk vs i.v. 1 mpk
[5] = ICR, mouse, plasma, po, 10 mg/kg, Mouse i.g. 10 mpk, read-out: AUC
[6] = ICR, mouse, plasma, po, 10 mg/kg, Mouse i.g. 10 mpk, read-out: Cmax
[7] = ICR, mouse, plasma, po, 10 mg/kg, Mouse i.g. 10 mpk

| SMILES | DC50 (AR in VCaP cells) | IC50 (LNCaP cells; Homo sapiens) | Human liver microsome Residuals at 60 min (%) [1] | clearance (Mouse pharmacokinetics; [2]) | AUC (Mouse pharmacokinetics; [3]) | bioavailability (Mouse pharmacokinetics; [4]) | AUC (Mouse pharmacokinetics; [5]) | Cmax (Mouse pharmacokinetics; [6]) | Dmax (AR in LNCaP cells) | IC50 (VCaP cells; Homo sapiens) | further results |
| --- | --- | --- | --- | --- | --- | --- | --- | --- | --- | --- | --- |
| N#Cc1ccc(O[C@H]2CC[C@H](NC(=O)c3ccc(N4CCN(CC5Cc6ccc7c(C8CCC(=O)NC8=O)noc7c6C5)CC4)nn3)CC2)cc1Cl (some centres unmarked) [Compound 26] | ≤ 0.001 µM | < 1 µM | >85% | 0.167 L/h/kg | 5.35 µg·h/mL | 24.8% | 13.2 µg·h/mL | 0.886 µg/mL |  |  | IC50 (VCaP cells; Homo sapiens, VCaP, 168 h): < 0.1 µM; half-life (Mouse pharmacokinetics; [2]): 7.58 h; t1/2 (Mouse pharmacokinetics; Mouse i.g. 10 mpk): 11 h |
| N#Cc1ccc(O[C@H]2CC[C@H](NC(=O)c3ccc(C4CCN(CC5CN(c6cc7onc(C8CCC(=O)NC8=O)c7c7ccccc67)C5)CC4)nn3)CC2)cc1Cl (some centres unmarked) [Compound 47] |  |  | >85% |  |  |  |  |  | > 80% | < 0.01 µM | DC50 (AR in LNCaP cells): ≤ 0.02 µM |
| N#Cc1ccc(O[C@H]2CC[C@H](NC(=O)c3ccc(N4CCN(CC5Cc6ccc7c(C8CCC(=O)NC8=O)noc7c6C5)CC4)nn3)CC2)cc1Cl (some centres unmarked) [Compound 27] | ≤ 0.001 µM |  | >85% |  |  |  |  |  |  |  | IC50 (VCaP cells): < 0.1 µM; IC50 (LNCaP cells): < 1 µM; AUC (Mouse pharmacokinetics; Mouse i.g. 10 mpk): 20.072 µg·h/mL; Cmax (Mouse pharmacokinetics; Mouse i.g. 10 mpk): 1.503 µg/mL; t1/2 (Mouse pharmacokinetics; Mouse i.g. 10 mpk): 5.47 h; F(%) (Mouse pharmacokinetics; Mouse i.g. 10 mpk vs i.v. 1 mpk): 35.85%; AUC (Mouse pharmacokinetics; Mouse i.v. 1 mpk, 1 mg/kg): 5.599 µg·h/mL; Cl (Mouse pharmacokinetics; Mouse i.v. 1 mpk, 1 mg/kg): 0.158 L/h/kg; t1/2 (Mouse pharmacokinetics; Mouse i.v. 1 mpk, 1 mg/kg): 7.6 h |
| N#Cc1ccc(O[C@H]2CC[C@H](NC(=O)c3ccc(N4CCC5(CC4)CC(CN4Cc6ccc7c(C8CCC(=O)NC8=O)noc7c6C4)C5)nn3)CC2)cc1Cl.O=C(O)/C=C\C(=O)O (some centres unmarked) [Compound 34] |  | < 1 µM | >85% |  |  |  |  |  | > 80% | < 0.1 µM |  |
| N#Cc1ccc(O[C@H]2CC[C@H](NC(=O)c3cnc(N4CCC(CN5Cc6ccc7c(C8CCC(=O)NC8=O)noc7c6C5)CC4)nc3)CC2)cc1Cl (some centres unmarked) [Compound 119] |  | < 1 µM | >85% | 0.348 L/h/kg | 2.72 µg·h/mL | 39% | 10.6 µg·h/mL | 0.559 µg/mL |  |  | IC50 (VCaP cells; Homo sapiens, VCaP, 168 h): < 0.1 µM; half-life (Mouse pharmacokinetics; [2]): 11.5 h; half-life (Mouse pharmacokinetics; [7]): 8.6 h |
| N#Cc1ccc(O[C@H]2CC[C@H](NC(=O)c3ccc(N4CCC(CN5CCc6ccc7c(C8CCC(=O)NC8=O)noc7c6C5)CC4)nn3)CC2)cc1Cl (some centres unmarked) [Compound 18] |  | < 1 µM | >85% | 0.162 L/h/kg | 5.93 µg·h/mL | 31% | 18.4 µg·h/mL | 1.2 µg/mL | > 80% |  | DC50 (AR in LNCaP cells): ≤ 0.02 µM; half-life (Mouse pharmacokinetics; [7]): 5.52 h |
| N#Cc1ccc(O[C@H]2CC[C@H](NC(=O)c3ccc(N4CCC(CN5CC6(Cc7ccc8c(C9CCC(=O)NC9=O)noc8c7C6)C5)CC4)nn3)CC2)cc1Cl (some centres unmarked) [Compound 21] |  | < 1 µM | >85% |  |  |  |  |  |  |  |  |
| N#Cc1ccc(O[C@H]2CC[C@H](NC(=O)c3ccc(N4CCC(N5CC(N6Cc7ccc8c(C9CCC(=O)NC9=O)noc8c7C6)C5)CC4)nn3)CC2)cc1Cl (some centres unmarked) [Compound 94] | ≤ 0.001 µM | < 1 µM | >85% |  |  |  |  |  |  | < 0.1 µM |  |

Source: US20260035384A1, “COMPOUND CONTAINING CYCLOHEXYL” (CHIA TAI TIANQING PHARMACEUTICAL GROUP CO., LTD., priority 2022, published 2026)
